Reference: patent publication US20230113944A1, “COMPOSITIONS AND METHODS FOR THE TREATMENT OF NEURODEGENERATIVE DISEASES” (priority 2020, published 2023)
“Also recorded” adds a separate entry of the source. Read-outs that look alike come from different tables or passages of the source.

What was measured:
human nSMase2 = biological target: T1, human nSMase2 (Homo sapiens, UniProt Q9NY59); test: biochemical; assay type: biochemical
T1 construct: expressed in transfected cells; host or cells: HEK293T
T1 sequence (Q9NY59 1-655): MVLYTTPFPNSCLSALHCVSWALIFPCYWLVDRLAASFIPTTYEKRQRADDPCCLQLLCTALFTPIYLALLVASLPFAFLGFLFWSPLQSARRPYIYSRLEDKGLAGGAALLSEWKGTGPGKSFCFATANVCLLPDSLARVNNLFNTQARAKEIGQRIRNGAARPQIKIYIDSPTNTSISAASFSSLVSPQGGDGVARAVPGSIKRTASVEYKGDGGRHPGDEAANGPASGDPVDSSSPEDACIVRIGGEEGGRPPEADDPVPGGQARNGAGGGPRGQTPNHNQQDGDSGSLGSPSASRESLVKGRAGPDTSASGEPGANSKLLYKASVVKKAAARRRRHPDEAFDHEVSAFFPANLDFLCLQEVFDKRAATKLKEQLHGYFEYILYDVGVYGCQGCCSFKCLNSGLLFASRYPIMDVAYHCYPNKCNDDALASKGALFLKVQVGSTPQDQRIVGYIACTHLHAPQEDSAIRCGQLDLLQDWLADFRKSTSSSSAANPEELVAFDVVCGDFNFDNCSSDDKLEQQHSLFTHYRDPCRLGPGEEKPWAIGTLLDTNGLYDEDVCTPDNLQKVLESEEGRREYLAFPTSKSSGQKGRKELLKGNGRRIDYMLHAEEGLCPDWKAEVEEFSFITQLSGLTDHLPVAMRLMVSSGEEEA
Experimental: To evaluate nSMase2 inhibitory activity of tested compounds, cell lysates from HEK293T cells over-expressing human nSMase2 were used as the source of the nSMase2 enzyme. The Amplex Red Sphingomyelinase activity assay was performed according to previously a described protocol^1. Confluent cells were washed with PBS and harvested with lysis buffer [100 mM Tris-HCl pH 7.5, 100 mM sucrose, 100 μM PMSF, 1× protease inhibitor cocktail] using a cell scraper, and then sonicated 3 times on ice for 10 sec and centrifuged at 10,000×g for 10 min at 4° C. to remove remaining cell debris. An initial screening of a compound library was performed using 50 μM compound concentrations. In secondary testing, selected compounds were analyzed at multiple compound concentrations and plotted as a percentage of DMSO control; dose-response curves were generated to determine IC50s using GraphPad Prism software (GraphPad Software, La Jolla Calif.). […] Activity of the enzyme in the presence of the different concentrations of the inhibitors was plotted against substrate concentration and the maximal rate of the enzymatic reaction (Vmax) and Michaelis constant were calculated using GraphPad Prism.

Human AChE = biological target: T2, Human AChE (Homo sapiens, UniProt P22303); test: biochemical
T2 construct: purchased Sigma
T2 sequence (P22303 32-614): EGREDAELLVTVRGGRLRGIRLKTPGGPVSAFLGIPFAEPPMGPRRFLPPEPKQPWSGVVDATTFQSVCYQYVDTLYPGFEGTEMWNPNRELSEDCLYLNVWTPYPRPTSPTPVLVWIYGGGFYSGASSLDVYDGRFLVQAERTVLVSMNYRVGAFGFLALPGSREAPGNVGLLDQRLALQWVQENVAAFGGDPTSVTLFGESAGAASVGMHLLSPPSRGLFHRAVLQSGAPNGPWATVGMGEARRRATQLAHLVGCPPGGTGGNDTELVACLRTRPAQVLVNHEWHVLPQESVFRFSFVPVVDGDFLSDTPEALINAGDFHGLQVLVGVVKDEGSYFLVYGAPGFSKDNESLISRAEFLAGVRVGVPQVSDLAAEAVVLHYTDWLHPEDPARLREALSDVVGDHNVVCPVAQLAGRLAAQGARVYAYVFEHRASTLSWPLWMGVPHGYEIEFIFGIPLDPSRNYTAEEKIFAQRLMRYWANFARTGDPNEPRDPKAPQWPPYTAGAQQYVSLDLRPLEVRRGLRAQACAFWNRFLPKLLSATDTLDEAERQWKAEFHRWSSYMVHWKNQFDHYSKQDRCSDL
Experimental: This acetylcholinesterase (AChE) assay is based on an Amplex Red assay kit (Thermo Fisher A12217). Human AChE (Sigma) was used. Briefly, 5 μL of compounds at the desired concentration were loaded into wells of a 384-well plate. Then, 5 μl of human AChE (30 mU/mL) was loaded into each well, followed by the addition of 10 μL of the working solution which contains 400 μM Amplex Red reagent, 2 U/mL HRP, 0.2 U/mL choline oxidase, and 100 μM acetylcholine. The reaction was monitored for 60 minutes and read at 530/590 nm. AChE IC50 was determined by plotting AChE activity as a percentage of DMSO control using GraphPad Prism software.

[1] = Parallel artificial membrane permeability (IAM column) prediction of CNS permeability; assay type: in vitro ADME
Experimental: To predict the potential for brain permeability, a Regis Technologies analytical column connected to an Agilent HPLC system (Infinity 1260 quaternary pump and multiple wavelength detector; 1200 autosampler) was used. An IAM.PC.DD column was (4.6 mm i.d.×10 cm, particle size 5 μm; pore size 300 Å) conditioned with 20 column volumes of mobile phase or until a stable line was achieved. A mobile phase with a consistent flow rate of 1 mL/min was used comprising 100 mM Na2PO4 (solvent A) and acetonitrile (solvent B); compounds were eluted using a gradient (min/% B: 0/30, 10/60, 11/30, 15/30). Detector settings were 220, 250 and 280 nm and acquisition time was 15 min. The autosampler injected 10 μL of compound at 2 mM final, diluted from 10 mM in DMSO in 70:30 (water:acetonitrile). After elution, compound retention and void volume times were obtained from the chromatogram. The IAM capacity factor: (KIAM) was calculated using the equation: […]
where tr is the retention time of a compound and t0 is the void volume time of the column. To predict CNS permeability, we used the correlation described by the formula below.

[2] = biological target: human serum albumin (HSA) (Homo sapiens, UniProt P02768); test: Binding to human serum albumin (HSA); details: for fraction unbound: human, human serum albumin
Chain of human serum albumin (HSA) (P02768 25-609): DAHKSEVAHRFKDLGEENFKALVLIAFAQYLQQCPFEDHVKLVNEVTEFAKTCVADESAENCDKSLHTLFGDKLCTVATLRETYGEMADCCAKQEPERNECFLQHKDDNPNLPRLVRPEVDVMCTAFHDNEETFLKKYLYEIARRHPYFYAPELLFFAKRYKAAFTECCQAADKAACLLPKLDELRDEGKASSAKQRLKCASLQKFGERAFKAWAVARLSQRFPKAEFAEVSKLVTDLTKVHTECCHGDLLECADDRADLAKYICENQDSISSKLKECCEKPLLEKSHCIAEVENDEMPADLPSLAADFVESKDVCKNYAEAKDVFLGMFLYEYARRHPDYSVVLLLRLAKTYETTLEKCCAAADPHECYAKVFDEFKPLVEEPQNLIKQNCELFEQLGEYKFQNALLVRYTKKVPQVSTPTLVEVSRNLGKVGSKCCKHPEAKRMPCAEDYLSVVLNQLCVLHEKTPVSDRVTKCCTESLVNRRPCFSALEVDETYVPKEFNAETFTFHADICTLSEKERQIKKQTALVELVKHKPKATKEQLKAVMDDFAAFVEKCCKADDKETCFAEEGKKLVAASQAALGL

| Structure (SMILES) | IC50 (human nSMase2; IC50 (nSMase2) Groups: A-D) [µM] | IC50 (Human AChE; AChE activity) [µM] | further results |
| --- | --- | --- | --- |
| C[C@@]12CCO[C@@H]1Nc1ccc(OCc3ccccc3)nc12 | > 50 | – | – |
| CN1c2ccc(O)nc2[C@]2(C)CCO[C@H]12 | 1 to 10 | – | – |
| CN1c2ccc(OC(=O)Nc3ccncc3F)cc2[C@]2(C)CCO[C@H]12 [drawing 62] | < 1 | > 5 | – |
| CN1c2ccc(OC(=O)Nc3ccc(C(F)(F)F)cc3)cc2[C@]2(C)CCO[C@H]12 [Compound 15] | – | – | IC50 (Human AChE; IC50 AChE): > 5 µM; CNS perm (PAMPA) ([1]; PAMPA, 2 mM): 2.2; fraction unbound [2]: 0.07 |
| CN1c2ccc(OC(=O)Nc3ccncc3F)cc2[C@]2(C)CCO[C@H]12 [Compound 13] | – | – | IC50 (human nSMase2; IC50 nSMase2): 0.6 µM; IC50 (Human AChE; IC50 AChE): > 5 µM; CNS perm (PAMPA) ([1]; PAMPA, 2 mM): 1.3; degree of binding to human serum albumin (HSA) [2]: low degree of binding; fraction unbound [2]: 0.35 |
| CN1c2ccc(OC(=O)Nc3cncc(F)c3)cc2[C@]2(C)CCO[C@H]12 [drawing 63] | < 1 | > 5 | – |
| COc1ccc2c(n1)[C@]1(c3ccccc3)CCO[C@@H]1N2 | > 50 | – | – |
| CN1c2ccc(OC(=O)Nc3ccccn3)cc2[C@]2(C)CCO[C@H]12 [Compound 12] | – | – | IC50 (human nSMase2; IC50 nSMase2): 0.8 µM; IC50 (Human AChE; IC50 AChE): > 5 µM; CNS perm (PAMPA) [1]: 1.9; degree of binding to human serum albumin (HSA) [2]: low degree of binding; fraction unbound [2]: 0.28 |
| CCN1c2ccc(OCc3ccccc3)nc2[C@]2(C)CCO[C@H]12 | > 50 | – | – |
| COc1cccc(NC(=O)Oc2ccc3c(c2)[C@]2(C)CCO[C@@H]2N3C)c1 [drawing 34] | 1 to 10 | < 0.5 | – |
| C[C@@]12CCO[C@@H]1Nc1cccnc12 | > 50 | – | – |
| CC[C@H]1C[C@@]2(C)c3cc(OC(=O)Nc4ccccc4)ccc3N(C)[C@H]2O1 [drawing 42] | 1 to 10 | 2.5 to 5 | – |
| COC(=O)N1CCC[C@@]2(C)c3nc(OC)ccc3N[C@@H]12 | > 50 | – | – |
| C=CC[C@@]12CCO[C@@H]1Nc1ccc(OC)nc12 | > 50 | – | – |
| CN1c2ccc(OC(=O)Nc3cncc(F)c3)cc2[C@]2(C)CCO[C@H]12 [Compound 14] | – | – | IC50 (human nSMase2; IC50 nSMase2): 0.9 µM; IC50 (Human AChE; IC50 AChE): > 5 µM; CNS perm (PAMPA) [1]: 2; fraction unbound [2]: 0.21 |
| Cc1cc(C)cc(NC(=O)Oc2ccc3c(c2)[C@]2(C)CCO[C@@H]2N3C)c1 [Compound 6] | – | – | IC50 (human nSMase2; IC50 nSMase2): 3.6 µM; IC50 (Human AChE; IC50 AChE): 0.2 µM; CNS perm (PAMPA) [1]: 3.1; fraction unbound [2]: 0.04 |
| C=CC[C@@]12CCN(S(=O)(=O)c3ccc(C)cc3)[C@@H]1Nc1ccc(OC)nc12 | > 50 | – | – |
| CN1c2ccc(OC(=O)Nc3ccccc3)cc2[C@]2(C)CCO[C@H]12 [Compound 1, phensvenine] | – | – | nSMase2 inhibitory activity (human nSMase2): has nSMase2 inhibitory activity; also recorded: weak nSMase2 inhibition; IC50 (human nSMase2; IC50 nSMase2): > 1 µM; IC50 (Human AChE; AChE IC50): 0.5 µM; CNS perm (PAMPA) [1]: 3.2; fraction unbound [2]: 0.12 |
| C[C@@]12CCO[C@@H]1Nc1ncccc12 | > 50 | – | – |
| CN1c2ccc(OC(=O)Nc3ccc(OC(F)(F)F)cc3)cc2[C@]2(C)CCO[C@H]12 [Compound 4] | – | – | IC50 (human nSMase2; IC50 nSMase2): 2.7 µM; IC50 (Human AChE; IC50 AChE): > 5 µM; CNS perm (PAMPA) [1]: 0.7; fraction unbound [2]: 0.33 |
| COc1ccc(NC(=O)Oc2ccc3c(c2)[C@]2(C)CCO[C@@H]2N3C)cc1 [drawing 33] | 1 to 10 | 2.5 to 5 | – |
| CN1c2ccc(OCc3ccccc3)nc2[C@]2(C)CCO[C@H]12 | > 50 | – | – |
| CCN1c2ccc(O)nc2[C@]2(C)CCO[C@H]12 | 1 to 10 | – | – |
| CN1c2ccc(OC(=O)Nc3ccc(OC(F)(F)F)cc3)cc2[C@]2(C)CCO[C@H]12 [drawing 35] | 10 to 50 | > 5 | – |
| CN1c2ccc(OC(=O)Nc3ccncc3)cc2[C@]2(C)CCO[C@H]12 (racemic) | – | > 5 | – |

| Structure (SMILES) | IC50 (human nSMase2; IC50 (nSMase2) Groups: A-D) [µM] | IC50 (Human AChE; AChE activity) [µM] | further results |
| --- | --- | --- | --- |
| CN1c2ccc(OC(=O)NC3CCCCC3)cc2[C@]2(C)CCO[C@H]12 [drawing 36] | 1 to 10 | < 0.5 | – |
| COc1cnc2c(c1)[C@]1(C)CCO[C@@H]1N2 | > 50 | – | – |
| C[C@@]12CCO[C@@H]1Nc1ccc(Br)nc12 | > 50 | – | – |
| Cc1cc(C)cc(NC(=O)Oc2ccc3c(c2)[C@]2(C)CCO[C@@H]2N3C)c1 [drawing 37] | 1 to 10 | < 0.5 | – |
| CC[C@@H]1C[C@@]2(C)c3cc(OC(=O)Nc4ccccc4)ccc3N(C)[C@H]2O1 [Compound 10] | – | – | IC50 (Human AChE; IC50 AChE): 3.7 µM; CNS perm (PAMPA) [1]: 3.2; fraction unbound [2]: 0.05 |
| COc1ccc(NC(=O)Oc2ccc3c(c2)[C@]2(C)CCO[C@@H]2N3C)cc1 [Compound 2] | – | – | IC50 (human nSMase2; IC50 nSMase2): 0.7 µM; IC50 (Human AChE; IC50 AChE): 3.6 µM; CNS perm (PAMPA) [1]: 2; fraction unbound [2]: 0.15 |
| COc1ccc2c(n1)[C@]1(C)CCO[C@@H]1N2 | > 50 | – | – |
| COc1ccc2c(n1)[C@]1(C)CCN(S(=O)(=O)c3ccc(C)cc3)[C@@H]1N2 | 10 to 50 | – | – |
| CCN(C)C(=O)Oc1ccc2c(c1)[C@]1(C)CCO[C@@H]1N2C [drawing 65] | – | > 5 | – |
| COc1ccc2c(n1)[C@]1(C)CCCO[C@@H]1N2 | > 50 | – | – |
| CN1c2ccc(OC(=O)Nc3ccccc3)nc2[C@]2(C)CCO[C@H]12 | 1 to 10 | – | – |
| CCN(C)C(=O)Oc1ccc2c(c1)[C@]1(C)CCO[C@@H]1N2C [Compound 16] | – | – | IC50 (Human AChE; IC50 AChE, Table 2, unit not in table, μM): > 5 µM |
| COc1ccnc2c1N[C@H]1OCC[C@@]21C | > 50 | – | – |
| COc1cc(NC(=O)Oc2ccc3c(c2)[C@]2(C)CCO[C@@H]2N3C)cc(OC)c1 [Compound 7] | – | – | IC50 (human nSMase2; IC50 nSMase2): 2 µM; IC50 (Human AChE; IC50 AChE): 0.3 µM; CNS perm (PAMPA) [1]: 1.8; fraction unbound [2]: 0.09 |
| COc1cccc(NC(=O)Oc2ccc3c(c2)[C@]2(C)CCO[C@@H]2N3C)c1 [Compound 3] | – | – | IC50 (Human AChE; IC50 AChE): 0.1 µM; CNS perm (PAMPA) [1]: 2.3; fraction unbound [2]: 0.1 |
| C[C@@]12CCO[C@@H]1Nc1ccc(Cl)nc12 | > 50 | – | – |
| CN1CC[C@@]2(C)c3cc(OC(=O)Nc4ccccc4)ccc3N(C)[C@@H]12 [phenserine, reference compound] | – | – | IC50 (human nSMase2; nSMase2 IC50): > 50 µM |
| CC[C@@H]1C[C@@]2(C)c3cc(OC(=O)Nc4ccccc4)ccc3N(C)[C@H]2O1 [drawing 43] | 1 to 10 | 2.5 to 5 | – |
| COc1cc(NC(=O)Oc2ccc3c(c2)[C@]2(C)CCO[C@@H]2N3C)cc(OC)c1 [drawing 38] | 1 to 10 | < 0.5 | – |
| COc1nccc2c1N[C@H]1OCC[C@@]21C | > 50 | – | – |
| CN1c2ccc(OC(=O)Nc3ccccc3)cc2[C@]2(C)CCO[C@H]12 [drawing 32] | 1 to 10 | < 0.5 | – |
| C[C@@]12CCO[C@@H]1Nc1ccc(O)nc12 | > 50 | – | – |
| CN1c2ccc(OC(=O)Nc3ccccn3)cc2[C@]2(C)CCO[C@H]12 [drawing 45] | < 1 | > 5 | – |
| CN1c2ccc(OC(=O)Nc3ccc(C(F)(F)F)cc3)cc2[C@]2(C)CCO[C@H]12 [drawing 64] | 1 to 10 | > 5 | – |
